Results reported in patent publication US7932270B2 (Cytokinetics, Inc., priority 2006, dated 2011).

These compounds were tested against T1, chicken gizzard smooth muscle myosin subfragment-1 chemically crosslinked to cardiac or skeletal actin (Gallus gallus, UniProt P10587) (assay: Smooth muscle myosin ATPase dose response assay (pyruvate kinase/horseradish peroxidase/pyruvate oxidase-coupled, amplex red fluorescence)). Conditions: read-out: IC50 Arithmetic Mean.
T1 construct: chicken gizzard smooth muscle myosin subfragment-1; from tissue; host or cells: chicken gizzard
Assay type: biochemical
Method in brief: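 Amplex red fluorescence (480 nm excitation, 615 nm emission) tracked ATP hydrolysis by smooth muscle S1 crosslinked to actin with carbodiimide/N-hydroxysuccinimide. Reactions contained 0.15 mM ATP and 100 mM KCl at pH 7.00, 22° C. IC50 came from a four-parameter logistic fit.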

T1 sequence (P02607 2-151): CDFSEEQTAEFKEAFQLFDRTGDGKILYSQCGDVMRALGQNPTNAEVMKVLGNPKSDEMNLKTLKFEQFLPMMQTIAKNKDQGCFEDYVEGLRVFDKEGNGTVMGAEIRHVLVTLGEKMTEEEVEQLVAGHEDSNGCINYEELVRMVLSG
T1 sequence (P10587 84-789): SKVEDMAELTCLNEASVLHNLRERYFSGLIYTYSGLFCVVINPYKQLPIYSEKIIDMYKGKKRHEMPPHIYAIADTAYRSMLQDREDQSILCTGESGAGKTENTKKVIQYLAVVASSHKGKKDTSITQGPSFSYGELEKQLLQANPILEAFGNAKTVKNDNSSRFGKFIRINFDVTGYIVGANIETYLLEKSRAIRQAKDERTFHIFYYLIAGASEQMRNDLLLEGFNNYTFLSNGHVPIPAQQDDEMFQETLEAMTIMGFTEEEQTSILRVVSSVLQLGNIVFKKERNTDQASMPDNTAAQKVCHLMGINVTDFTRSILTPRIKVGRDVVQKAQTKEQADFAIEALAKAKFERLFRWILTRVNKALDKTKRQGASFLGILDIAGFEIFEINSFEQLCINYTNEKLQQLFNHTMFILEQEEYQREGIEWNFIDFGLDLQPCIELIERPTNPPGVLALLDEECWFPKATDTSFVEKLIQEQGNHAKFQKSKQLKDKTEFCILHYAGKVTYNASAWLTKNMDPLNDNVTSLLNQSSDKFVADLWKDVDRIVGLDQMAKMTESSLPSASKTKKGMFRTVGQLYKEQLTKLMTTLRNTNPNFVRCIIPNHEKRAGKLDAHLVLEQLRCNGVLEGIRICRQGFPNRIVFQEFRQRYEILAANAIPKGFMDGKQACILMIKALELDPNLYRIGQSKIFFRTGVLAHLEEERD

Row | Compound | IC50
1 | N#Cc1ccccc1-c1ccc(C(=O)NC[C@H]2CCCN2C(=O)CCCN)c(NCCc2ccccc2)n1 [N-{[(2R)-1-(4-aminobutanoyl)pyrrolidin-2-yl]methyl}{6-(2-cyanophenyl)-2-[(2-phenylethyl)amino](3-pyridyl)}carboxamide] | 62 nM
2 | C[C@@H](CN=[N+]=[N-])CNC(=O)c1cc(F)c(-c2cnn(C)c2)nc1NCCc1cccc(F)c1 [N-((2R)-4-diazo-2-methyl-4-azabut-4-enyl)(5-fluoro-2-{[2-(3-fluorophenyl)ethyl]amino}-6-(1-methylpyrazol-4-yl)(3-pyridyl))carboxamide] | 118 nM
3 | CC[C@H](CNC(=O)c1cc(F)c(-c2cnn(C)c2)nc1NCCc1cccc(F)c1)NC(=O)CNC(=O)OC(C)(C)C [N-((1R)-1-{[(5-fluoro-2-{[2-(3-fluorophenyl)ethyl]amino}-6-(1-methylpyrazol-4-yl)(3-pyridyl))carbonylamino]methyl}propyl)-2-[(tert-butoxy)carbonylamino]acetamide] | 3040 nM
4 | O=C1CC[C@H](CNC(=O)c2ccc(-c3cc[nH]n3)nc2NCCc2cccc(F)c2)N1 [N-[((2R)-5-oxopyrrolidin-2-yl)methyl](2-{[2-(3-fluorophenyl)ethyl]amino}-6-pyrazol-3-yl(3-pyridyl))carboxamide] | 355 nM
5 | N#Cc1ccccc1-c1ccc(C(=O)NCC2CCCC(=O)N2CCCN)c(NCCc2cccc(F)c2)n1 (stereo not drawn) [N-{[1-(3-aminopropyl)-6-oxo(2-piperidyl)]methyl}(6-(2-cyanophenyl)-2-{[2-(3-fluorophenyl)ethyl]amino}(3-pyridyl))carboxamide] | 25 nM
6 | Cn1cc(-c2nc(NCCc3cccc(F)c3)c(C(=O)NC[C@H]3CCN3C(=O)OC(C)(C)C)cc2F)cn1 [tert-butyl (2R)-2-{[(5-fluoro-2-{[2-(3-fluorophenyl)ethyl]amino}-6-(1-methylpyrazol-4-yl)(3-pyridyl))carbonylamino]methyl}azetidinecarboxylate] | 525 nM
7 | COC(=O)N1CC[C@@H]1CNC(=O)c1ccc(-c2ccccc2C#N)nc1NCCc1cccc(F)c1 [methyl (2R)-2-{[(6-(2-cyanophenyl)-2-{[2-(3-fluorophenyl)ethyl]amino}(3-pyridyl))carbonylamino]methyl}azetidinecarboxylate] | 73 nM
8 | N#Cc1ccccc1-c1nc(NCCc2cccc(F)c2)c(C(=O)NC[C@H]2CCCN2C(=O)CN)cc1F [N-{[(2R)-1-(2-aminoacetyl)pyrrolidin-2-yl]methyl}(6-(2-cyanophenyl)-5-fluoro-2-{[2-(3-fluorophenyl)ethyl]amino}(3-pyridyl))carboxamide] | 40 nM
9 | N#Cc1ccccc1-c1ccc(C(=O)NCC2CCCC(CN)C2)c(NCCc2cccc(F)c2)n1 (stereo not drawn) [N-{[3-(aminomethyl)cyclohexyl]methyl}(6-(2-cyanophenyl)-2-{[2-(3-fluorophenyl)ethyl]amino}(3-pyridyl))carboxamide] | 352 nM
10 | CC[C@H](CNC(=O)c1cc(F)c(-c2cn[nH]c2)nc1NCCc1cccc(F)c1)C(=O)OC [methyl (2R)-2-{[(5-fluoro-2-{[2-(3-fluorophenyl)ethyl]amino}-6-pyrazol-4-yl(3-pyridyl))carbonylamino]methyl}butanoate] | 117 nM
11 | Cn1cc(-c2nc(NCCc3cccc(F)c3)c(C(=O)NC[C@H]3CCCN3C(=O)CCCN)cc2F)cn1 [N-{[(2R)-1-(4-aminobutanoyl)pyrrolidin-2-yl]methyl}(5-fluoro-2-{[2-(3-fluorophenyl)ethyl]amino}-6-(1-methylpyrazol-4-yl)(3-pyridyl))carboxamide] | 87 nM
12 | Cc1cc(C(=O)NC[C@H]2CCCN2)c(NCCc2cccc(F)c2)nc1-c1cnn(C)c1 [N-[((2R)pyrrolidin-2-yl)methyl](2-{[2-(3-fluorophenyl)ethyl]amino}-5-methyl-6-(1-methylpyrazol-4-yl)(3-pyridyl))carboxamide] | 901 nM
13 | COC(=O)N1CCC[C@@H]1CNC(=O)c1ccc(-c2ccccc2C#N)nc1NCCc1cccc(F)c1 [methyl (2R)-2-{[(6-(2-cyanophenyl)-2-{[2-(3-fluorophenyl)ethyl]amino}(3-pyridyl))carbonylamino]methyl}pyrrolidinecarboxylate] | 101 nM
14 | CC(C)(C)OC(=O)NCCCC(=O)N1CCC[C@@H]1CNC(=O)c1cc(F)c(-c2cn[nH]c2)nc1NCCc1cccc(F)c1 [N-[((2R)-1-{4-[(tert-butoxy)carbonylamino]butanoyl}pyrrolidin-2-yl)methyl](5-fluoro-2-{[2-(3-fluorophenyl)ethyl]amino}-6-pyrazol-4-yl(3-pyridyl))carboxamide] | 750 nM
15 | NCC(=O)N1CCC[C@@H]1CNC(=O)c1cc(F)c(-c2cn[nH]c2)nc1NCCc1cccc(F)c1 [N-{[(2R)-1-(2-aminoacetyl)pyrrolidin-2-yl]methyl}(5-fluoro-2-{[2-(3-fluorophenyl)ethyl]amino}-6-pyrazol-4-yl(3-pyridyl))carboxamide] | 61 nM
16 | C[C@H](CNC(=O)c1cc(F)c(-c2cnn(C)c2)nc1NCCc1cccc(F)c1)C(C)(C)O [N-((2R)-3-hydroxy-2,3-dimethylbutyl)(5-fluoro-2-{[2-(3-fluorophenyl)ethyl]amino}-6-(1-methylpyrazol-4-yl)(3-pyridyl))carboxamide] | 1230 nM

More lines, now with the values ahead:

Row | IC50 | Compound
17 | 79 nM | O=C(NCc1cccnc1)c1ccc(-c2ccccc2)nc1NCCc1cc(F)ccc1F [(2-{[2-(2,5-difluorophenyl)ethyl]amino}-6-phenyl(3-pyridyl))-N-(3-pyridylmethyl)carboxamide]
18 | 209 nM | N#Cc1ccccc1-c1ccc(C(=O)NCC(CO)CO)c(NCCc2cccc(F)c2)n1 [(6-(2-cyanophenyl)-2-{[2-(3-fluorophenyl)ethyl]amino}(3-pyridyl))-N-[3-hydroxy-2-(hydroxymethyl)propyl]carboxamide]
19 | 604 nM | NCc1cccc(CNC(=O)c2cc(Br)c(-c3ccccc3)nc2NCCc2cccc(F)c2)n1 [N-{[6-(aminomethyl)(2-pyridyl)]methyl}(5-bromo-2-{[2-(3-fluorophenyl)ethyl]amino}-6-phenyl(3-pyridyl))carboxamide]
20 | 15700 nM | CN1CCNC[C@@H]1CNC(=O)c1ccc(-c2ccccc2C#N)nc1NCCc1cccc(F)c1 [N-[((2R)-1-methylpiperazin-2-yl)methyl](6-(2-cyanophenyl)-2-{[2-(3-fluorophenyl)ethyl]amino}(3-pyridyl))carboxamide]
21 | 2170 nM | O=C(NCc1cccnc1)c1ccc(-c2ccccc2O)nc1NCCc1ccccn1 [{6-(2-hydroxyphenyl)-2-[(2-(2-pyridyl)ethyl)amino](3-pyridyl)}-N-(3-pyridylmethyl)carboxamide]
22 | 619 nM | COC(=O)[C@@H](N)CNC(=O)c1ccc(-c2ccccc2C#N)nc1NCCc1cccc(F)c1 [methyl (2S)-2-amino-3-[(6-(2-cyanophenyl)-2-{[2-(3-fluorophenyl)ethyl]amino}(3-pyridyl))carbonylamino]propanoate]
23 | 211 nM | O=C(NCc1cccnc1)c1cc(F)c(-c2cn[nH]c2)nc1NCCn1cccn1 [{5-fluoro-6-pyrazol-4-yl-2-[(2-pyrazolylethyl)amino](3-pyridyl)}-N-(3-pyridylmethyl)carboxamide]
24 | 1200 nM | CN(CCNC(=O)c1ccc(-c2ccccc2C#N)nc1NCCc1cccc(F)c1)C(=O)CCCN [4-amino-N-{2-[(6-(2-cyanophenyl)-2-{[2-(3-fluorophenyl)ethyl]amino}(3-pyridyl))carbonylamino]ethyl}-N-methylbutanamide]
25 | 1230 nM | N#Cc1ccccc1-c1ccc(C(=O)NCCNC(=O)CN)c(NCCc2cccc(F)c2)n1 [2-amino-N-{2-[(6-(2-cyanophenyl)-2-{[2-(3-fluorophenyl)ethyl]amino}(3-pyridyl))carbonylamino]ethyl}acetamide]
26 | 16900 nM | N#Cc1ccccc1-c1ccc(C(=O)NCc2ccc(N3CCOCC3)nc2)c(NCCc2cccc(F)c2)n1 [(6-(2-cyanophenyl)-2-{[2-(3-fluorophenyl)ethyl]amino}(3-pyridyl))-N-[(6-morpholin-4-yl(3-pyridyl))methyl]carboxamide]
27 | 3090 nM | O=C(NCCc1cccnc1)c1ccc(-c2ccccc2)nc1NCCc1ccccc1 [{6-phenyl-2-[(2-phenylethyl)amino](3-pyridyl)}-N-(2-(3-pyridyl)ethyl)carboxamide]
28 | 47 nM | N#Cc1ccccc1-c1ccc(C(=O)NC[C@H]2CCCN2C(=O)CCN)c(NCCc2cccc(F)c2)n1 [N-{[(2R)-1-(3-aminopropanoyl)pyrrolidin-2-yl]methyl}(6-(2-cyanophenyl)-2-{[2-(3-fluorophenyl)ethyl]amino}(3-pyridyl))carboxamide]
29 | 2320 nM | COC(=O)[C@H](CN)NC(=O)c1ccc(-c2ccccc2C#N)nc1NCCc1cccc(F)c1 [methyl (2S)-3-amino-2-[(6-(2-cyanophenyl)-2-{[2-(3-fluorophenyl)ethyl]amino}(3-pyridyl))carbonylamino]propanoate]
30 | 1480 nM | O=C(NCc1cccnc1)c1ccc(-c2ccccc2)nc1NCCc1ncccc1F [(2-{[2-(3-fluoro(2-pyridyl))ethyl]amino}-6-phenyl(3-pyridyl))-N-(3-pyridylmethyl)carboxamide]
31 | 1370 nM | CN(CCNC(=O)c1ccc(-c2ccccc2C#N)nc1NCCc1cccc(F)c1)C(=O)CN [2-amino-N-{2-[(6-(2-cyanophenyl)-2-{[2-(3-fluorophenyl)ethyl]amino}(3-pyridyl))carbonylamino]ethyl}-N-methylacetamide]
32 | 5340 nM | C=Cc1ccccc1-c1ccc(C(=O)NCc2cccnc2)c(NCCc2ccccn2)n1 [{2-[(2-(2-pyridyl)ethyl)amino]-6-(2-vinylphenyl)(3-pyridyl)}-N-(3-pyridylmethyl)carboxamide]
33 | 59100 nM | O=C(NCc1cccnc1)c1c(CO)cc(-c2ccccc2)nc1NCCc1cccc(F)c1 [(2-{[2-(3-fluorophenyl)ethyl]amino}-4-(hydroxymethyl)-6-phenyl(3-pyridyl))-N-(3-pyridylmethyl)carboxamide]
